Like-named read-outs stand apart in the source and are kept apart here.
What was measured:
[1] = target: PDGFRβ (Rattus norvegicus (Rat), UniProt Q05030); test: PDGFRβ Cellular Assay (PDGFRb P-Y751 HTRF in A10 cells stimulated with PDGF-BB); assay type: cell-based
Summary of the method: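 Rat A10 cells, plated overnight, were treated with compound for 3 hours, then stimulated with PDGF-BB (working stock 100 ng/mL in 10% FBS medium). After lysis, PDGFRβ P-Y751 was detected by HTRF.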

[2] = target: Tb-labeled inactive PDGFRβ (Homo sapiens (Human), UniProt P09619); test: PDGFRβ LanthaScreen Assay; assay type: binding; conditions: read-out: PDGFR Lantha IC50
Tb-labeled inactive PDGFRβ, sequence (P09619 33-1106): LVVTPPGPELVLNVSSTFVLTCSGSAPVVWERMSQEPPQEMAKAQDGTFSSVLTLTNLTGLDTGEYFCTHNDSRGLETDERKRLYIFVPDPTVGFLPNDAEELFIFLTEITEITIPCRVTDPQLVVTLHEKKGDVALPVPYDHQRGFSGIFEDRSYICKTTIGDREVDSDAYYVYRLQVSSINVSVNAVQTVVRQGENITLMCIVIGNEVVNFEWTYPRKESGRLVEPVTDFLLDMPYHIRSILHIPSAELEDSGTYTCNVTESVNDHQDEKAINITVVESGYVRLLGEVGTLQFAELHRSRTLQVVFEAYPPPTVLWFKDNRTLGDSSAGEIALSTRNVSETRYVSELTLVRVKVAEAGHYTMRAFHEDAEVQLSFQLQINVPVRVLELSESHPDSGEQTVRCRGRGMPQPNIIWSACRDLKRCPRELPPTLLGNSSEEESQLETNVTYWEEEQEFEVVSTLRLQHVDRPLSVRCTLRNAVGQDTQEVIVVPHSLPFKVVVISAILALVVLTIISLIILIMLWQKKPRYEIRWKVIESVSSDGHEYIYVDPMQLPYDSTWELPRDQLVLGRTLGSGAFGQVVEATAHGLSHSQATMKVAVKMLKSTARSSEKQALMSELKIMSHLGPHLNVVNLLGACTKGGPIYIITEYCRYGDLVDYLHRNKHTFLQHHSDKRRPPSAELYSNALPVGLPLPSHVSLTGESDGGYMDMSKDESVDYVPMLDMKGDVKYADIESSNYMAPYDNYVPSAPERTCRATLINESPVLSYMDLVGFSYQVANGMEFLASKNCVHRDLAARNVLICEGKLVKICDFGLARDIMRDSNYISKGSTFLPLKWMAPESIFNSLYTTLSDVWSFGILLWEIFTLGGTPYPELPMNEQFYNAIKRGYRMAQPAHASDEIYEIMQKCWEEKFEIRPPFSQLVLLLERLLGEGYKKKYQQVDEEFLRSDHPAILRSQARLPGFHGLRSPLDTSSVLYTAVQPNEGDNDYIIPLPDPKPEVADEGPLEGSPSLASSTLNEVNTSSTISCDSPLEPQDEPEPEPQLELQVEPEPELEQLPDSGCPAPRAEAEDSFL

[3] = target: His6-TEV-PDGFRβ (557-1016) (Homo sapiens (Human), UniProt P09619); test: PDGFRβ HTRF Assay; assay type: biochemical; conditions: read-out: PDGFR HTRF IC50
His6-TEV-PDGFRβ (557-1016), sequence (P09619 557-1016): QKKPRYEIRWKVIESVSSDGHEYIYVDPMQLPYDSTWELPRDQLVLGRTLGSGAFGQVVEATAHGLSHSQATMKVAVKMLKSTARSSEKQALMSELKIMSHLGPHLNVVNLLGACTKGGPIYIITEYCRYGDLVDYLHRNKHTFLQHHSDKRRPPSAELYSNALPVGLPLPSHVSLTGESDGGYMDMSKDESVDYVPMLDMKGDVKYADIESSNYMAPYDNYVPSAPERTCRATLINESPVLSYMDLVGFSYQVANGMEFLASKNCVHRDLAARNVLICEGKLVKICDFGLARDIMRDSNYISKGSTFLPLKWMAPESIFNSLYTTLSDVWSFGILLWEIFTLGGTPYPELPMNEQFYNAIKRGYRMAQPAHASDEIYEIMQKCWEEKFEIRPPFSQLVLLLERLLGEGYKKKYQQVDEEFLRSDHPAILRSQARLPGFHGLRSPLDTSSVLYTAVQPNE
Summary of the method: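 Human PDGFRβ (557-1016) pre-incubated with compound for 30 min at RT in pH 7.5 HEPES/MgCl2/EGTA/Brij-35/DTT buffer. Reaction started with ATP and TK-biotin peptide, run 3 h at RT, then quenched with EDTA-containing Eu-cryptate antibody/streptavidin-XL665. HTRF 665/620 nm ratio read after 60 min; percent inhibition relative to DMSO and 10 μM imatinib controls.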

PDGFRβ, sequence (Q05030 32-1097): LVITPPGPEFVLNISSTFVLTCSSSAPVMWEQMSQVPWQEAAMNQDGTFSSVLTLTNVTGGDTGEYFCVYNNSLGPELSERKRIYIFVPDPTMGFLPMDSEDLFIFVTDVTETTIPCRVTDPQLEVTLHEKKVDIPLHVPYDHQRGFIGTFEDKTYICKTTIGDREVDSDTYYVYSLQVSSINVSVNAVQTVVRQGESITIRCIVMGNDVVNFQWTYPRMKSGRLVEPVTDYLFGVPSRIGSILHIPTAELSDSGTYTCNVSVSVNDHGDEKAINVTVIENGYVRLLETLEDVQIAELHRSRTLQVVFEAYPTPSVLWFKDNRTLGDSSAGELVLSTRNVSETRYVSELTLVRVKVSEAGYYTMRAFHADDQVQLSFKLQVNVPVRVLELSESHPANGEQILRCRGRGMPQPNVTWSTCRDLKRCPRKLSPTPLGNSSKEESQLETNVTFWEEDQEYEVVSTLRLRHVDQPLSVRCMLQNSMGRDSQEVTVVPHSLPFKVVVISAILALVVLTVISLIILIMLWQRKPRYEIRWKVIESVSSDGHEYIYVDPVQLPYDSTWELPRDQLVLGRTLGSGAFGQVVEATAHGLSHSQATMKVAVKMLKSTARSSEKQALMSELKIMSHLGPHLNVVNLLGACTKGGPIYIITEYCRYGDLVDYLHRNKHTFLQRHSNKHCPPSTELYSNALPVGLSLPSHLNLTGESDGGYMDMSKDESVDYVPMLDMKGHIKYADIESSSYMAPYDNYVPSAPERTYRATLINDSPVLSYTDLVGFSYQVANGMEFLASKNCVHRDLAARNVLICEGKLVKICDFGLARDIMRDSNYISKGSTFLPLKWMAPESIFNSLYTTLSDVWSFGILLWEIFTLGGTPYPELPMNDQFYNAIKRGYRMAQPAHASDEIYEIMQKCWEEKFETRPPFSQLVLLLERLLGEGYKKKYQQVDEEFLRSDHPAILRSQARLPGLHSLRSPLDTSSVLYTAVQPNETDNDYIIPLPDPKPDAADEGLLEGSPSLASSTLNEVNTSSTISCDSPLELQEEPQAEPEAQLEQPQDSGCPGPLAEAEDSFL

| SMILES | IC50 ([1]; read-out: PDGFR Cellular IC50) [nM] | IC50 [2] [nM] | IC50 [3] [nM] | IC50 ([1]; PDGFR Cellular IC50) [nM] |
| --- | --- | --- | --- | --- |
| Cc1ncc(NC(=O)CN2CCC[C@H]2C)cc1NC(=O)c1cnn2cc(-c3nn(C)nc3C)sc12 [Example 443, (R)-2-(2,5-dimethyl-2H-1,2,3-triazol-4-yl)-N-(2-methyl-5-(2-(2-methylpyrrolidin-1-yl)acetamido)pyridin-3-yl)pyrazolo[5,1-b]thiazole-7-carboxamide] | 3.9 | 4.4 | 0.4 |  |
| Cc1ncc(NC(=O)CN2CCCC2(C)C)cc1NC(=O)c1cnn2cc(-c3cn(C)nc3C)sc12 [Example 444, 2-(1,3-Dimethyl-1H-pyrazol-4-yl)-N-(5-(2-(2,2-dimethylpyrrolidin-1-yl)acetamido)-2-methylpyridin-3-yl)pyrazolo[5,1-b]thiazole-7-carboxamide] | 1.3 | 1.8 | 0.2 |  |
| Cc1ncc(NC(=O)CN2CC(C)(C)C2)cc1NC(=O)c1cnn2cc(-c3nn(C)nc3C)sc12 [Example 445, 2-(2,5-Dimethyl-2H-1,2,3-triazol-4-yl)-N-(5-(2-(3,3-dimethylazetidin-1-yl)acetamido)-2-methylpyridin-3-yl)pyrazolo[5,1-b]thiazole-7-carboxamide] | 2.2 | 2.1 | 0.3 |  |
| Cc1ncc(NC(=O)CN2CCC(C)C2)cc1NC(=O)c1cnn2cc(-c3cn(C)nc3C)sc12 (stereo not drawn) [Example 446, 2-(1,3-Dimethyl-1H-pyrazol-4-yl)-N-(2-methyl-5-(2-(3-methylpyrrolidin-1-yl)acetamido)pyridin-3-yl)pyrazolo[5,1-b]thiazole-7-carboxamide] | 3 | 3.5 | 0.3 |  |
| Cc1ncc(NC(=O)CN2CCCC2(C)C)cc1NC(=O)c1cnn2cc(-c3cnn(CCO)c3)sc12 [Example 447, N-(5-(2-(2,2-dimethylpyrrolidin-1-yl)acetamido)-2-methylpyridin-3-yl)-2-(1-(2-hydroxyethyl)-1H-pyrazol-4-yl)pyrazolo[5,1-b]thiazole-7-carboxamide] | 12.4 | 3.7 | 0.5 |  |
| Cc1ncc(NC(=O)CN2CCCC2(C)C)cc1NC(=O)c1cnn2cc(-c3cccnc3OCCF)sc12 [Example 448, N-(5-(2-(2,2-dimethylpyrrolidin-1-yl)acetamido)-2-methylpyridin-3-yl)-2-(2-(2-fluoroethoxy)pyridin-3-yl)pyrazolo[5,1-b]thiazole-7-carboxamide] | 2.4 | 1.8 | 0.2 |  |
| Cc1ncc(NC(=O)CN2CCCC2(C)C)cc1NC(=O)c1cnn2cc(-c3cccn(CCF)c3=O)sc12 [Example 449, N-(5-(2-(2,2-dimethylpyrrolidin-1-yl)acetamido)-2-methylpyridin-3-yl)-2-(1-(2-fluoroethyl)-2-oxo-1,2-dihydropyridin-3-yl)pyrazolo[5,1-b]thiazole-7-carboxamide] | 10.6 | 9.1 | 0.7 |  |
| Cc1ncc(C(=O)NCCN2CCCC2(C)C)cc1NC(=O)c1cnn2cc(-c3cnn4c3COCC4)sc12 [Example 450, 2-(6,7-dihydro-4H-pyrazolo[5,1-c][1,4]oxazin-3-yl)-N-(5-((2-(2,2-dimethylpyrrolidin-1-yl)ethyl)carbamoyl)-2-methylpyridin-3-yl)pyrazolo[5,1-b]thiazole-7-carboxamide] | 21.6 | 2.4 | 0.4 |  |
| COCCn1cc(-c2cn3ncc(C(=O)Nc4cc(NC(=O)C[C@@H]5CCCN5C(C)C)cnc4C)c3s2)cn1 [Example 451, (S)—N-(5-(2-(1-isopropylpyrrolidin-2-yl)acetamido)-2-methylpyridin-3-yl)-2-(1-(2-methoxyethyl)-1H-pyrazol-4-yl)pyrazolo[5,1-b]thiazole-7-carboxamide] | 67 | 16.1 | 0.8 |  |
| COCCn1cc(-c2cn3ncc(C(=O)Nc4cc(NC(=O)C5(CN6CCC[C@@H]6C)CC5)cnc4C)c3s2)cn1 [Example 452, (S)-2-(1-(2-methoxyethyl)-1H-pyrazol-4-yl)-N-(2-methyl-5-(1-((2-methylpyrrolidin-1-yl)methyl)cyclopropanecarboxamido)pyridin-3-yl)pyrazolo[5,1-b]thiazole-7-carboxamide] | 91.6 | 376 | 12.1 |  |
| Cc1ncc(NC(=O)CNCC2CC2)cc1NC(=O)c1cnn2cc(-c3cnn4c3OCCC4)sc12 [Example 453, N-(5-(2-((cyclopropylmethyl)amino)acetamido)-2-methylpyridin-3-yl)-2-(6,7-dihydro-5H-pyrazolo[5,1-b][1,3]oxazin-3-yl)pyrazolo[5,1-b]thiazole-7-carboxamide] | 25.1 | 5.8 | 0.6 |  |
| Cc1ncc(NC(=O)CNCC2CC2)cc1NC(=O)c1cnn2cc(-c3cnn4c3CCC4)sc12 [Example 454, N-(5-(2-((cyclopropylmethyl)amino)acetamido)-2-methylpyridin-3-yl)-2-(5,6-dihydro-4H-pyrrolo[1,2-b]pyrazol-3-yl)pyrazolo[5,1-b]thiazole-7-carboxamide] | 12.7 | 4.6 | 0.4 |  |
| CCCNCC(=O)Nc1cnc(C)c(NC(=O)c2cnn3cc(-c4cnn5c4OCCC5)sc23)c1 [Example 455, 2-(6,7-dihydro-5H-pyrazolo[5,1-b][1,3]oxazin-3-yl)-N-(2-methyl-5-(2-(propylamino)acetamido)pyridin-3-yl)pyrazolo[5,1-b]thiazole-7-carboxamide] |  | 3.3 | 0.6 | 15 |
| CCCNCC(=O)Nc1cnc(C)c(NC(=O)c2cnn3cc(-c4cnn5c4CCC5)sc23)c1 [Example 456, 2-(5,6-dihydro-4H-pyrrolo[1,2-b]pyrazol-3-yl)-N-(2-methyl-5-(2-(propylamino)acetamido)pyridin-3-yl)pyrazolo[5,1-b]thiazole-7-carboxamide] | 11 | 4.7 | 0.4 |  |
| Cc1ncc(NC(=O)CN2CCCC2(C)C)cc1NC(=O)c1cnn2cc(-c3cnn(C(C)(C)CO)c3)sc12 [Example 457, N-(5-(2-(2,2-dimethylpyrrolidin-1-yl)acetamido)-2-methylpyridin-3-yl)-2-(1-(1-hydroxy-2-methylpropan-2-yl)-1H-pyrazol-4-yl)pyrazolo[5,1-b]thiazole-7-carboxamide] | 4 | 3.4 | 0.4 |  |
| Cc1ncc(NC(=O)CN2CCCC2(C)C)cc1NC(=O)c1cnn2cc(-c3cnn4c3COCC4)sc12 [Example 458, 2-(6,7-dihydro-4H-pyrazolo[5,1-c][1,4]oxazin-3-yl)-N-(5-(2-(2,2-dimethylpyrrolidin-1-yl)acetamido)-2-methylpyridin-3-yl)pyrazolo[5,1-b]thiazole-7-carboxamide] | 2 | 1.7 | 0.3 |  |
| Cc1ncc(C(=O)NCCN2CC3CCC2CC3)cc1NC(=O)c1cnn2cc(-c3cnn4c3COCC4)sc12 [Example 459, N-(5-((2-(2-azabicyclo[2.2.2]octan-2-yl)ethyl)carbamoyl)-2-methylpyridin-3-yl)-2-(6,7-dihydro-4H-pyrazolo[5,1-c][1,4]oxazin-3-yl)pyrazolo[5,1-b]thiazole-7-carboxamide] | 33.7 | 1.5 | 0.3 |  |
| Cc1ncc(C(=O)NCCN2CCCC2(C)C)cc1NC(=O)c1cnn2cc(-c3cnn4c3OCCC4)sc12 [Example 460, 2-(6,7-dihydro-5H-pyrazolo[5,1-b][1,3]oxazin-3-yl)-N-(5-((2-(2,2-dimethylpyrrolidin-1-yl)ethyl)carbamoyl)-2-methylpyridin-3-yl)pyrazolo[5,1-b]thiazole-7-carboxamide] | 13.4 | 1.6 | 0.3 |  |
| Cc1ncc(C(=O)NCCN2CCCC23CCC3)cc1NC(=O)c1cnn2cc(-c3cnn4c3CCC4)sc12 [Example 461, N-(5-((2-(5-azaspiro[3.4]octan-5-yl)ethyl)carbamoyl)-2-methylpyridin-3-yl)-2-(5,6-dihydro-4H-pyrrolo[1,2-b]pyrazol-3-yl)pyrazolo[5,1-b]thiazole-7-carboxamide] | 2.1 | 0.8 | 0.2 |  |
| COCCn1cc(-c2cn3ncc(C(=O)Nc4cc(NC(=O)CCC5CCCN5C)cnc4C)c3s2)cn1 (stereo not drawn) [Example 462, 2-(1-(2-methoxyethyl)-1H-pyrazol-4-yl)-N-(2-methyl-5-(3-(1-methylpyrrolidin-2-yl)propanamido)pyridin-3-yl)pyrazolo[5,1-b]thiazole-7-carboxamide] | 298 | 15.3 | 0.7 |  |
| COCCn1cc(-c2cn3ncc(C(=O)Nc4cc(NC(=O)CCC5CCCN5C(C)C)cnc4C)c3s2)cn1 (stereo not drawn) [Example 463, N-(5-(3-(1-isopropylpyrrolidin-2-yl)propanamido)-2-methylpyridin-3-yl)-2-(1-(2-methoxyethyl)-1H-pyrazol-4-yl)pyrazolo[5,1-b]thiazole-7-carboxamide] | 782 | 11 | 0.7 |  |
| Cc1ncc(NC(=O)C[C@@H]2CCN(C(C)C)C2)cc1NC(=O)c1cnn2cc(-c3cnn(C)c3)sc12 [Example 464, (S)—N-(5-(2-(1-isopropylpyrrolidin-3-yl)acetamido)-2-methylpyridin-3-yl)-2-(1-methyl-1H-pyrazol-4-yl)pyrazolo[5,1-b]thiazole-7-carboxamide] | 2000 | 145 | 5.2 |  |
